{"source": "patent US11382889B2", "about": "“NRF2 activators for the prevention and/or treatment of axonal degeneration” (priority 2018, dated 2022)", "system": "X-ALD fibroblasts", "test": "NRF2 response (HMOX1, NQO1, GCLC expression) in X-ALD patient fibroblasts incubated with excess VLCFA", "assay_type": "cell-based, human", "settings": "normalized to RPLP0, fold change to vehicle", "method": "This means that the NRF-2 target genes HMOX1, NQO1 and GCLC increase their expression when incubated with excess VLCFA. See FIG. 4 (n=8 per genotype and condition). Gene expression normalized relative to RPLP0. Quantification depicted as fold change to vehicle-treated (Veh) fibroblasts.", "data": [{"smiles": "Cc1c[nH]c(-c2cnc(NCCNc3ccc(C#N)cn3)nc2-c2ccc(Cl)cc2Cl)n1", "note": "[CT99021]", "values": [{"measurement": "NRF2 response: expression of NRF-2 target genes HMOX1, NQO1 and GCLC", "result": "restore a normal NRF2 response"}]}, {"smiles": "Cn1cc(C2=C(c3ccc(Cl)cc3Cl)C(=O)NC2=O)c2ccccc21", "note": "[SB216763]", "values": [{"measurement": "NRF2 response: expression of NRF-2 target genes HMOX1, NQO1 and GCLC", "result": "restore a normal NRF2 response"}]}]}
